Data taken from publication PMC10175918 (Communications Biology, 2023).
Like-named read-outs stand apart in the source and are kept apart here.

Legend:
Experiment in all cases: TGFα-shedding assay-based GPCR screening with chimeric Gα subunit proteins
Type in all cases: cell-based
[1] = target: T1, 348 GPCRs (Homo sapiens, UniProt O14804); conditions: 10µM, Favipiravir 100μM
T1 construct: expressed in transfected cells; host or cells: HEK293A
T1 sequence (O14804 1-337): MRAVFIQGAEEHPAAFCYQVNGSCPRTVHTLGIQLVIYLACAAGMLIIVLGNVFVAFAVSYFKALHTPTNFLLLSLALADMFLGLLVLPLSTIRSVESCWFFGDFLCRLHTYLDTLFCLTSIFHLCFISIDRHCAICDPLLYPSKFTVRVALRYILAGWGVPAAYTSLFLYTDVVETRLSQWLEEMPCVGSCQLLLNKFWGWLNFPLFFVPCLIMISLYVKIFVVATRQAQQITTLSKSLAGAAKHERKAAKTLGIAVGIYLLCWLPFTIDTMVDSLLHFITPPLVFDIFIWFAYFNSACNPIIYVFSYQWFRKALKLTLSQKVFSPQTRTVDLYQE

[2] = target: T2, 348 GPCRs (Homo sapiens, UniProt P18089)
T2 construct: expressed in transfected cells; host or cells: HEK293A
T2 sequence (P18089 1-450): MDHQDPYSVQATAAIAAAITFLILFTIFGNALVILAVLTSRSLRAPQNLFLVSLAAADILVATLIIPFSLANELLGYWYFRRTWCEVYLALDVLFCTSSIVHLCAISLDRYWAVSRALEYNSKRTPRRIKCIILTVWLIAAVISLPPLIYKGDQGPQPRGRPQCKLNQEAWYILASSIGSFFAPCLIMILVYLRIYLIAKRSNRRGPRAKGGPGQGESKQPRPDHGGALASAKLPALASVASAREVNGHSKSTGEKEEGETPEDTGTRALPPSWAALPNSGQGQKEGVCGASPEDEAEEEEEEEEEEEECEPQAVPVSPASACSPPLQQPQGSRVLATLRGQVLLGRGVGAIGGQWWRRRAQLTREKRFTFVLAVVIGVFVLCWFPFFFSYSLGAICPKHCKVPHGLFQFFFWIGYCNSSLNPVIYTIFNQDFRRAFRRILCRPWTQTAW

[3] = target: T3, 348 GPCRs (Homo sapiens, UniProt P25024)
T3 construct: expressed in transfected cells; host or cells: HEK293A
T3 sequence (P25024 1-350): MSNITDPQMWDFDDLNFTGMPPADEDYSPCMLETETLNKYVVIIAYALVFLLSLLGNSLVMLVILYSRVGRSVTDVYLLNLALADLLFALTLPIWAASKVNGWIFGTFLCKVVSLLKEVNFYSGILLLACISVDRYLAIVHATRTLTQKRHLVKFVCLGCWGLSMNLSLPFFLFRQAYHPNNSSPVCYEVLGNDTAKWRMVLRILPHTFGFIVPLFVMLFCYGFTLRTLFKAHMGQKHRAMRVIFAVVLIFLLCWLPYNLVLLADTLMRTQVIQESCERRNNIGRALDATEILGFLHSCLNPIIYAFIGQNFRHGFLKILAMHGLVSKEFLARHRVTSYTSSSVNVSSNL

[4] = target: T4, 348 GPCRs (Homo sapiens, UniProt P48960)
T4 construct: expressed in transfected cells; host or cells: HEK293A
T4 sequence (P48960 21-835): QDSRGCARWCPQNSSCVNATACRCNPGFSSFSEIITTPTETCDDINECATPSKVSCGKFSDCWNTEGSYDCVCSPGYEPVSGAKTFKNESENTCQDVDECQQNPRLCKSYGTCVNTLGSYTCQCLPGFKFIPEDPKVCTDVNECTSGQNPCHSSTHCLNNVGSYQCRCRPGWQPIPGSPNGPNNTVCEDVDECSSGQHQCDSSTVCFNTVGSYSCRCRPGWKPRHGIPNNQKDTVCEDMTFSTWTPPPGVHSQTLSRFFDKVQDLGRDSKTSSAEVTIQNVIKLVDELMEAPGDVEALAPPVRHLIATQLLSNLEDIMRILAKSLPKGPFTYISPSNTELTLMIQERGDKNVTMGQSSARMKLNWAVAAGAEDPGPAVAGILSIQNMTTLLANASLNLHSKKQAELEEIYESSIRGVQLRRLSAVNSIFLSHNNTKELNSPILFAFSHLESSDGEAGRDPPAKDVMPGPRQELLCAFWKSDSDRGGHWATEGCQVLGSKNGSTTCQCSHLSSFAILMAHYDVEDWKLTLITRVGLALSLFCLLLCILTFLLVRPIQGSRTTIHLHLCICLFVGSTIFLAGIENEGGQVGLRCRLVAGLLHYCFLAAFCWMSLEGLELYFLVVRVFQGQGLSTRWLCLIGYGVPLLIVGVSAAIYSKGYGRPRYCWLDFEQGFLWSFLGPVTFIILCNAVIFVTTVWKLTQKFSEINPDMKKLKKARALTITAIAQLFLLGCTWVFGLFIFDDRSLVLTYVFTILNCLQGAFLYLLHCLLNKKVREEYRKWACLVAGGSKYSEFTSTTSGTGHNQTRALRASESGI

[5] = target: T5, 348 GPCRs (Homo sapiens, UniProt Q15077)
T5 construct: expressed in transfected cells; host or cells: HEK293A
T5 sequence (Q15077 whole entry): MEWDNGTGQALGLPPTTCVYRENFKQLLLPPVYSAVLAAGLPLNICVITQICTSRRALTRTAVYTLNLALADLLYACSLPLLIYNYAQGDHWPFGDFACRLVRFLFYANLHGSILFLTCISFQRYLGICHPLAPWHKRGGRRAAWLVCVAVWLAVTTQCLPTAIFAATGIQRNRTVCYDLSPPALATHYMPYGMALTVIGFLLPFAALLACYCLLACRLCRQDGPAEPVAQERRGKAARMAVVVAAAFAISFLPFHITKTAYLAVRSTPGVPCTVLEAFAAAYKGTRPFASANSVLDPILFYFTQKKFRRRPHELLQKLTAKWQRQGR

[6] = target: T6, 348 GPCRs (Homo sapiens, UniProt Q9P296); conditions: 10µM, Favipiravir 100μM
T6 construct: expressed in transfected cells; host or cells: HEK293A
T6 sequence (Q9P296 whole entry): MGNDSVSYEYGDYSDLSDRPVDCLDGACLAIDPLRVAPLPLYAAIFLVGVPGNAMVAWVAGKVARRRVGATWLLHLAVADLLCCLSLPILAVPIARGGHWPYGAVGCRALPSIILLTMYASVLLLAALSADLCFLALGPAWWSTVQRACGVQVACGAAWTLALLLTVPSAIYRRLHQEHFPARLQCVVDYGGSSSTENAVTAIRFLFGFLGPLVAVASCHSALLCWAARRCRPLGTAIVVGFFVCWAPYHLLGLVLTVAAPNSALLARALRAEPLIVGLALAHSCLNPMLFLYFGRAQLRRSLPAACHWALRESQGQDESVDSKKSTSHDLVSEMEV

[7] = TAAR5 (trace amine associated receptor 5), read-out: % GPCR activation compared to TPA
[8] = GPCR α2B (adrenoceptor alpha 2B), read-out: % GPCR activation compared to TPA
[9] = GPCR CXCR1 (chemokine (C-X-C motif) receptor 1), read-out: % GPCR activation compared to TPA
[10] = GPCR CD97 (adhesion G protein-coupled receptor E5), read-out: % GPCR activation compared to TPA
[11] = GPCR P2Y6 (pyrimidinergic receptor P2Y, G-protein coupled, 6), read-out: % GPCR activation compared to TPA
[12] = GPR77 (complement component 5a receptor 2 (C5AR2)), read-out: % GPCR activation compared to TPA
[13] = read-out: % GPCR activation compared to TPA, TAAR5 (trace amine associated receptor 5)
[14] = read-out: % GPCR activation compared to TPA, GPCR α2B (adrenoceptor alpha 2B)
[15] = read-out: % GPCR activation compared to TPA, GPCR CXCR1 (chemokine (C-X-C motif) receptor 1)
[16] = read-out: % GPCR activation compared to TPA, GPCR CD97 (adhesion G protein-coupled receptor E5)
[17] = read-out: % GPCR activation compared to TPA, GPCR P2Y6 (pyrimidinergic receptor P2Y, G-protein coupled, 6)
[18] = read-out: % GPCR activation compared to TPA, GPR77 (complement component 5a receptor 2 (C5AR2))

Row | Compound | activation at 100 µM [1, 7] | activation at 10 µM [2, 8] | activation at 10 µM [3, 9] | activation at 10 µM [4, 10] | activation at 10 µM [5, 11] | activation at 100 µM [6, 12] | activation at 100 µM ([2]; GPCR α2B (adrenoceptor alpha 2B), 100μM, read-out: % GPCR activation compared to TPA) | activation at 100 µM ([3]; GPCR CXCR1 (chemokine (C-X-C motif) receptor 1), 100μM, read-out: % GPCR activation compared to TPA) | activation at 100 µM ([4]; GPCR CD97 (adhesion G protein-coupled receptor E5), 100μM, read-out: % GPCR activation compared to TPA) | activation at 100 µM ([5]; GPCR P2Y6 (pyrimidinergic receptor P2Y, G-protein coupled, 6), 100μM, read-out: % GPCR activation compared to TPA) | activation at 100 µM [1, 13] | activation at 10 µM [2, 14] | activation at 10 µM [3, 15] | activation at 10 µM [4, 16] | activation at 10 µM [5, 17] | activation at 100 µM [6, 18]
1 | NC(=O)c1nc(F)cnc1O [favipiravir, 6-fluoro-3-hydroxy-2-pyrazinecarboxamide] | -0.417% |  |  |  |  | 6.15% | -4.03% | -1.26% | -3.34% | -0.384% |  |  |  |  |  | 
2 | CCC(CC)COC(=O)[C@H](C)N[P@](=O)(OC[C@H]1O[C@@](C#N)(c2ccc3c(N)ncnn23)[C@H](O)[C@@H]1O)Oc1ccccc1 [remdesivir] |  |  |  |  |  |  |  |  |  |  | 0.868% | 5.93% | -0.838% | 1.2% | 1.18% | 4.77%
3 | CC(C)OC(=O)[C@H](C)N[P@](=O)(OC[C@H]1O[C@@H](n2ccc(=O)[nH]c2=O)[C@](C)(F)[C@@H]1O)Oc1ccccc1 [sofosbuvir] |  |  |  |  |  |  |  |  |  |  | -2.96% | 0.619% | -0.0928% | -1.88% | -26.6% | -3.7%

More lines, main results first:

Row | activation at 100 µM [1, 7] | activation at 10 µM [2, 8] | activation at 10 µM [3, 9] | activation at 10 µM [4, 10] | activation at 10 µM [5, 11] | activation at 100 µM [6, 12] | activation at 100 µM ([2]; GPCR α2B (adrenoceptor alpha 2B), 100μM, read-out: % GPCR activation compared to TPA) | activation at 100 µM ([3]; GPCR CXCR1 (chemokine (C-X-C motif) receptor 1), 100μM, read-out: % GPCR activation compared to TPA) | activation at 100 µM ([4]; GPCR CD97 (adhesion G protein-coupled receptor E5), 100μM, read-out: % GPCR activation compared to TPA) | activation at 100 µM ([5]; GPCR P2Y6 (pyrimidinergic receptor P2Y, G-protein coupled, 6), 100μM, read-out: % GPCR activation compared to TPA) | Compound | activation at 100 µM [1, 13] | activation at 10 µM [2, 14] | activation at 10 µM [3, 15] | activation at 10 µM [4, 16] | activation at 10 µM [5, 17] | activation at 100 µM [6, 18]
4 | 0.608% | -2.28% | -1.09% | -3.9% | -8.65% | 2.65% |  |  |  |  | N#C[C@@]1(c2ccc3c(N)ncnn23)O[C@H](CO)[C@@H](O)[C@H]1O [GS441524] |  |  |  |  |  | 
5 | -1.58% | -2.53% | -2.06% | -0.34% | -17.8% | -1.07% |  |  |  |  | CC(C)C(=O)OC[C@H]1O[C@@H](n2ccc(NO)nc2=O)[C@H](O)[C@@H]1O [molnupiravir] |  |  |  |  |  | 
